Reference: patent publication US6723726B1 (SmithKline Beecham Corporation, priority 1996, dated 2004)
Structures can show the parent of a compound that is named as a salt. Where two headings read alike, the source gives them in different places.

What was measured:
BT474 cells = test: Cell proliferation assay, BT474 breast tumour cell line; format: cell-based, human; settings: 4 days, methylene blue staining, read-out: Cell Proliferation BT474 IC50
Method: (§1) The cell proliferation assay uses an immortalised human breast epithelial cell line (HB4a) which has been transformed by over-expression of c-erbB-2. Growth of these cells in low serum is dependent upon the c-erbB-2 tyrosine kinase activity. The specificity of the effect of the test compounds on tyrosine kinase dependent growth over general toxicity is assessed by comparison to an HB4a cell line which has been transfected with ras. Cells are plated at 3000/well in 96-well plates in 0.1 ml medium and allowed to attach overnight, test compound is added in 0.1 ml medium, with a final concentration of 0.5% DMSO, and the plates incubated for 4 days at 37° C. The cells are then examined microscopically for evidence of morphological detransformation and cell mass is estimated by staining with methylene blue and measuring the absorbance at 620 nm. The results are shown in Table 1 below as the IC50 values in nM. Activity against a range of naturally occurring EGFr or c-erbB-2 over-expressing human tumour cell lines (BT474-breast, HN5-head and neck, N87-gastric and Calu3-lung) is assessed with selected compounds by the same methodology. The results are also shown in Table 1 below as the IC50 values in nM.

[1] = target: T1, c-erbB-2 (baculovirus expressed recombinant intracellular domain) (Homo sapiens, UniProt P04626); test: Substrate phosphorylation assay, c-erbB-2; format: biochemical; settings: ATP and peptide at Km, 30 min, room temperature
T1 construct: baculovirus expressed, recombinant constructs of the intracellular domains of c-erbB-2 and c-erbB-4 that are constitutively active; made in house
Method: (§2) The substrate phosphorylation assays use baculovirus expressed, recombinant constructs of the intracellular domains of c-erbB-2 and c-erbB-4 that are constitutively active and EGFr isolated from solubilised A431 cell membranes. The method measures the ability of the isolated enzymes to catalyse the transfer of the γ-phosphate from ATP onto tyrosine residues in a biotinylated synthetic peptide (Biotin-[…]. […] The reaction is stopped by the addition of EDTA (final concentration 0.15 mM) and a sample is transferred to a streptavidin-coated 96-well plate. The plate is washed and level of phosphotyrosine on the peptide is determined using a Europium-labelled antiphosphotyrosine antibody and quantified with a time-resolved fluorescence technique.

[2] = target: T2, c-erbB-4 (baculovirus expressed recombinant intracellular domain) (Homo sapiens, UniProt Q15303); test: Substrate phosphorylation assay, c-erbB-4; format: biochemical; settings: ATP and peptide at Km, 30 min, room temperature
T2 construct: baculovirus expressed, recombinant constructs of the intracellular domains of c-erbB-2 and c-erbB-4 that are constitutively active; made in house
Method: as §2

HB4a ras cells = test: Cell proliferation assay, HB4a transfected with ras (general toxicity comparison); format: cell-based, human; settings: read-out: Cell Proliferation HB4a ras IC50
Method: as §1

HN5 cells = test: Cell proliferation assay, HN5 head and neck tumour cell line; format: cell-based; settings: Homo sapiens, HN5, 96 h; 4 days, methylene blue staining; read-out: Cell Proliferation HN5 IC50
Method: as §1

HB4a erbB-2 cells = test: Cell proliferation assay, HB4a transformed by over-expression of c-erbB-2; format: cell-based, human; settings: read-out: Cell Proliferation HB4a erbB-2 IC50
Method: as §1

[3] = target: T3, EGFr isolated from solubilised A431 cell membranes (Homo sapiens, UniProt P00533); test: Substrate phosphorylation assay, EGFr; format: biochemical; settings: ATP and peptide at Km, 30 min, room temperature
T3 construct: EGFr isolated from solubilised A431 cell membranes; endogenous in cells; host or cells: A431 cell membranes (solubilised)
Method: as §2

Calu3 cells = test: Cell proliferation assay, Calu3 lung tumour cell line; format: cell-based, human; settings: 4 days, methylene blue staining, read-out: Cell Proliferation Calu3 IC50
Method: as §1

[4] = Homo sapiens, HB4a, 96 h, 4 days, methylene blue staining
[5] = 4 days, methylene blue staining

T1 sequence (P04626 676-1255 limits assumed): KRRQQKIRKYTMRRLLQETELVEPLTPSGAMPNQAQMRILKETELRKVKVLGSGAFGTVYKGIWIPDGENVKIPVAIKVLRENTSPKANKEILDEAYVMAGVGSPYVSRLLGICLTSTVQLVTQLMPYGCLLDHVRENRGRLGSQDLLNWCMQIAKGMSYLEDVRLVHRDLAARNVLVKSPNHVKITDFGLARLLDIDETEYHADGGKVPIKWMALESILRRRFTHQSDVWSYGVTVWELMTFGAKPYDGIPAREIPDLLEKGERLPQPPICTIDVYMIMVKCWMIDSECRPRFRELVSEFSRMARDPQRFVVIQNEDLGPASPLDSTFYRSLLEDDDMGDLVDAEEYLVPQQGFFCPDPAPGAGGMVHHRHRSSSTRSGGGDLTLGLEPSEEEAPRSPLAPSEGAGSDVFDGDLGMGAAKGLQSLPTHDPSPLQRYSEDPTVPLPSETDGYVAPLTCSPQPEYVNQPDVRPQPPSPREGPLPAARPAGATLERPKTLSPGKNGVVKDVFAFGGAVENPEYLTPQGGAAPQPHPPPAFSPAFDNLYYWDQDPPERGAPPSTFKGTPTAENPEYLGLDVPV
T3 sequence (P00533 25-1210): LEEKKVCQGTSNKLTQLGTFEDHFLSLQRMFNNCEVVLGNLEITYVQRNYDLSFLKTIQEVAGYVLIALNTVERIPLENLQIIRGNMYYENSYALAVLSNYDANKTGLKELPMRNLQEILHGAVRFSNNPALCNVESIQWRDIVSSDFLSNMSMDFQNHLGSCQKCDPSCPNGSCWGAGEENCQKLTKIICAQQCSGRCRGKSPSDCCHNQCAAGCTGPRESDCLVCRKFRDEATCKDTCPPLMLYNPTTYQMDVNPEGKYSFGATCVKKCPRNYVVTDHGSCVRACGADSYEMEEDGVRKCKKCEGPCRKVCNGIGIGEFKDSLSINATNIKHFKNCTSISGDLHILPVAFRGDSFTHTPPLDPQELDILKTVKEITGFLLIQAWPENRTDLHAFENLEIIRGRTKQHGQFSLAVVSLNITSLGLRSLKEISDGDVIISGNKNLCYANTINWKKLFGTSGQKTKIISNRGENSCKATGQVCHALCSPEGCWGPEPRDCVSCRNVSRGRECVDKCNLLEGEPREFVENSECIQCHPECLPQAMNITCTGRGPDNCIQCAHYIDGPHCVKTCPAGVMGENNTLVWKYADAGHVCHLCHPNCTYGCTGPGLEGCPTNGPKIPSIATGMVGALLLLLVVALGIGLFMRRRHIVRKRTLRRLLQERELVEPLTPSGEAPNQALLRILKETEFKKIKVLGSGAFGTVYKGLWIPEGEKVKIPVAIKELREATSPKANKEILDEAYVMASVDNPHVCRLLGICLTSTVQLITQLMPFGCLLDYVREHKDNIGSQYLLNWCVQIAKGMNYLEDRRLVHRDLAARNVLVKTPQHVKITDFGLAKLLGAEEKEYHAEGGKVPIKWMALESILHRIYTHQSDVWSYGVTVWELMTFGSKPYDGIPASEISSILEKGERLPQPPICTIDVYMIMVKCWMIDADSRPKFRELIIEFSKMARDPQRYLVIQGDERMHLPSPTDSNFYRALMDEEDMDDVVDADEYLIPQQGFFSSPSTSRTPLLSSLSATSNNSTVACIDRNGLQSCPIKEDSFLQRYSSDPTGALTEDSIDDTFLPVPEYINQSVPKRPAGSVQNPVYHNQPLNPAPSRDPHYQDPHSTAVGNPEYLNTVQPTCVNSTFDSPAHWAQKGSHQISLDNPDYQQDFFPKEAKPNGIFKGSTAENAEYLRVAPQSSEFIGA
T2 sequence (Q15303 676-1308 limits assumed): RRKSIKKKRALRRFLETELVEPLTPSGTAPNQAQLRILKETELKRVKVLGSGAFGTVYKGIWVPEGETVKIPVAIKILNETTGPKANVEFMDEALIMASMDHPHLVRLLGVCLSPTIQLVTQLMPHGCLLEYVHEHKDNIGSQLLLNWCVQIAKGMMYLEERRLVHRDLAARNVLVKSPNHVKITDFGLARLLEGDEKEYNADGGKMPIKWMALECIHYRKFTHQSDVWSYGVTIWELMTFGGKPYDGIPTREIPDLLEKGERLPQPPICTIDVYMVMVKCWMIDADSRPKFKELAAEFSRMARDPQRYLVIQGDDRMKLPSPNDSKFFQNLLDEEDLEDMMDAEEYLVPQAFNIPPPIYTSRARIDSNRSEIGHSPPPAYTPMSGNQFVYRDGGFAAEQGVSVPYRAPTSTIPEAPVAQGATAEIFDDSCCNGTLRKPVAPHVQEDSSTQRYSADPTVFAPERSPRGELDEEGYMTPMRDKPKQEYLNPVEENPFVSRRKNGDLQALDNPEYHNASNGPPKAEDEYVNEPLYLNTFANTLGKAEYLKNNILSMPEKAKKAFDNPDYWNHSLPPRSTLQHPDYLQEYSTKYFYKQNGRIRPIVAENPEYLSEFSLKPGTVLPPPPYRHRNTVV

Row | Compound | IC50 [1] [nM] | IC50 [2] [nM] | IC50 (HB4a ras cells; [4]) [nM] | IC50 (HB4a erbB-2 cells; [4]) [nM] | IC50 [3] [nM] | further results
1 | c1ccc(Cn2ncc3cc(Nc4ncnc5cnc(N6CCCC6)cc45)ccc32)cc1 [Example 24, (1-Benzyl-1H-indazol-5-yl)-(6-pyrrolidin-1-yl-pyrido[3,4-d]pyrimidin-4-yl)-amine] | 20 | 140 | 50000 | 810 |  | IC50 (BT474 cells; Homo sapiens, BT-474, 96 h): 460 nM; IC50 (HN5 cells): 900 nM
2 | c1ccc(Cn2ncc3cc(Nc4ncnc5cnc(-n6cncn6)cc45)ccc32)cc1 [Example 21] |  |  |  |  | 54 | IC50 (HB4a ras cells; [5]): 18000 nM; IC50 (HB4a erbB-2 cells; [5]): 500 nM
3 | CC(C)NC(=O)CN1CCN(c2cc3c(Nc4ccc5c(cnn5Cc5ccccc5)c4)ncnc3cn2)CC1 [Example 27, 2-(4-(4-(1-Benzyl-1H-indazol-5-ylamino)-pyrido[3,4-d]pyrimidin-6-yl)-piperazin-1-yl)-N-isopropyl-acetamide] | 2 | 190 | 21000 | 380 |  | 
4 | c1ccc(Cn2ncc3cc(Nc4ncnc5cnc(-n6nccn6)cc45)ccc32)cc1 [Example 22] |  |  |  |  | 22 | IC50 (HB4a ras cells; [5]): 18000 nM; IC50 (HB4a erbB-2 cells; [5]): 1700 nM
5 | O=C(O)c1ccc(-c2cc3c(Nc4ccc5c(cnn5Cc5ccccc5)c4)ncnc3cn2)o1 [Example 35, 5-[4-(1-Benzyl-1H-indazol-5-ylamino)-pyrido-[3,4-d]pyrimidin-6-yl]-furan-2-carboxylic Acid Hydrochloride] |  |  | > 50000 | 27000 | 1600 | 
6 | CN(CCO)c1cc2c(Nc3ccc4c(cnn4Cc4ccccc4)c3)ncnc2cn1 [Example 3] | 7 | 23 | 33000 | 140 |  | IC50 (Calu3 cells; Homo sapiens, Calu-3, 96 h): 1800 nM
7 | CN(C)c1cc2c(Nc3ccc4c(cnn4Cc4ccc(F)cc4)c3)ncnc2cn1 [Example 17, N4-(4-Fluoro-benzyl)-1H-indazol-5-yl)-N6,N6-dimethyl-pyrido[3,4-d]pyrimidine-4,6-diamine Hydrochloride] | 250 |  |  |  |  | IC50 (BT474 cells): 550 nM; IC50 (HB4a ras cells; [5]): 7600 nM; IC50 (Calu3 cells): 7000 nM; IC50 (HB4a erbB-2 cells; [5]): 490 nM
8 | CS(=O)(=O)CCNC(=O)c1ccc(-c2cc3c(Nc4ccc5c(cnn5Cc5ccccc5)c4)ncnc3cn2)o1 [Example 36, 5-[4-(1-benzyl-1H-indazol-5-ylamino)-pyrido-[3,4-d]pyrimidin-6-yl]-furan-2-carboxylic Acid 2-methanesulphonyl-ethylamide Hydrochloride] |  |  | > 50000 | 3100 | 1600 | 
9 | c1ccc(Cn2ncc3cc(Nc4ncnc5cnc(-n6ccnc6)cc45)ccc32)cc1 [Example 20, (1-Benzyl-1H-indazol-5-yl)-(6-imidazol-1-yl-pyrido[3,4-d]pyrimidin-4-yl)-amine] | 33 |  | 14000 | 470 | 4 | 
10 | CN(C)c1cc2c(Nc3ccc4c(cnn4Cc4ccc(O)cc4)c3)ncnc2cn1 [Example 38, N4-[1-(4-Hydroxybenzyl)-1H-indazol-5-yl)-N6,N6-dimethyl-pyrido[3,4-d]pyrimidine-4,6-diamine] | 330 | 1900 | 50000 | 6900 | 930 | 
11 | CN(C)c1cc2c(Nc3ccc4c(cnn4Cc4cccnc4)c3)ncnc2cn1 [Example 13, N6,N6-Dimethyl-N4-(1-pyridin-3-ylmethyl-1H-indazol-5-yl)-pyrido[3,4-d]pyrimidine-4,6-diamine Hydrochloride] | 50 | 2400 | 28000 | 240 | 370 | 
12 | CCN(C)c1cc2c(Nc3ccc4c(cnn4Cc4ccccc4)c3)ncnc2cn1 [Example 26, N4-(1-Benzyl-1H-indazol-5-yl)-N6-ethyl-N6-methyl-pyrido[3,4-d]pyrimidine-4.6-diamine] | 29 |  |  |  | 54 | IC50 (HB4a ras cells; [5]): 8900 nM; IC50 (HB4a erbB-2 cells; [5]): 150 nM
13 | CN(C)c1cc2c(Nc3ccc4c(S(=O)(=O)c5ccccc5)c[nH]c4c3)ncnc2cn1 [Example 19, Hydrochloride] | 6 | 130 |  |  | 540 | IC50 (HB4a ras cells; Homo sapiens, HB4a, 96 h): 33000 nM; IC50 (HB4a erbB-2 cells; Homo sapiens, HB4a, 96 h): 1200 nM
14 | CN(C)c1cc2c(Nc3ccc4c(ccn4Cc4ccccc4)c3)ncnc2cn1 [Example 6, N4-(1-Benzyl-1H-indol-5-yl)-N6,N6-dimethyl-pyrido[3,4-d]pyrimidine-4,6-diamine] | 11 | 150 |  |  |  | IC50 (HN5 cells): 320 nM
15 | Cc1nnc(-c2cc3c(Nc4ccc5c(cnn5Cc5cccc(F)c5)c4)ncnc3cn2)o1 [Example 30, (1-(3-Fluoro-benzyl)-1H-indazol-5-yl)-(6-(5-methyl-1,3,4-oxadiazol-2-yl)-pyrido[3,4-d]pyrimidin-4-yl)-amine Hydrochloride] | 2 | 9600 | 26000 | 2900 | 2 | 
16 | CN(C)c1cc2c(Nc3ccc4c(ccn4S(=O)(=O)c4ccccc4)c3)ncnc2cn1 [Example 18, N4-(1-Benzenesulphonyl-1H-indol-5-yl)-N6,N6-dimethyl-pyrido[3,4-d]pyrimidine-4,6-diamine Hydrochloride] | 98 | 1700 | 19000 | 21 | 290 | IC50 (HN5 cells): 440 nM
17 | O=C(CN1CCN(c2cc3c(Nc4ccc5c(cnn5Cc5ccccc5)c4)ncnc3cn2)CC1)N1CCOCC1 [Example 28, 2-(4-(4-(1-Benzyl-1H-indazol-5-ylamino)-pyrido[3,4-d]pyrimidin-6-yl)-piperazin-1-yl)-1-morpholin-4-yl-ethanone] | 4 | 170 | 28000 | 590 |  | 
18 | CN(C)c1cc2c(Nc3ccc4c(cnn4Cc4ccccc4F)c3)ncnc2cn1 [Example 15, N4-(1-(2-Fluoro-benzyl)1H-indazol-5-yl)-N6,N6-dimethyl-pyrido[3,4-d]pyrimidine-4.6-diamine Hydrochloride] | 7 | 4 | 14000 | 4 |  | 
19 | Clc1cc2c(Nc3ccc4c(cnn4Cc4ccccc4)c3)ncnc2cn1 [Example 1, (1-Benzyl-1H-indazol-5-yl)-(6-chloro-pyrido[3,4-d]pyrimidin-4-yl)-amine Hydrochloride] | 27 | 48 |  |  |  | 
20 | c1ccc(Cn2ncc3cc(Nc4ncnc5cnccc45)ccc32)cc1 [Example 4, (1-Benzyl-1H-indazol-5-yl)-(pyrido[3,4-d]pyrimidin-4-yl)-amine] | 120 | 1300 | 13000 | 3900 |  | 
21 | c1ccc(Cn2ncc3cc(Nc4ncnc5cnc(-n6ccnn6)cc45)ccc32)cc1 [Example 23] |  |  |  |  | 31 | IC50 (HB4a ras cells; [5]): 22000 nM; IC50 (HB4a erbB-2 cells; [5]): 250 nM
22 | Cc1nn(Cc2ccccc2)c2ccc(Nc3ncnc4cnc(N(C)C)cc34)cc12 [Example 14, N4-(1-Benzyl-3-methyl-1H-indazol-5-yl)-N6,N6-dimethyl-pyrido[3,4-d]pyrimidine-4,6-diamine] | 430 | 1500 | 7900 | 950 | 830 | 
23 | CN(C)c1cc2c(Nc3ccc4c(cnn4Cc4ccccn4)c3)ncnc2cn1 [Example 12, N6,N6-Dimethyl-N4-(1-pyridin-2-ylmethyl-1H-indazol-5-yl)-pyrido[3,4-d]pyrimidine-4,6diamine Hydrochloride] | 1 | 3 | 32000 | 170 | 77 | 
24 | c1ccc(COc2cc3c(Nc4ccc5c(cnn5Cc5ccccc5)c4)ncnc3cn2)cc1 [Example 33, (1-Benzyl-1H-indazolyl-5-yl)-(6-benzyloxy-pyrido[3,4-d]pyrimidin-4-yl)-amine Hydrochloride] | 140 | 2700 | 50000 | > 50000 | 1900 | 
